Measured values as given in patent US10266526B2, “Substituted 1,2,3-triazoles as SMYD inhibitors for treating cancer” (EPIZYME, INC., priority 2014, dated 2019).
Where two headings read alike, the source gives them in different places.

Target: SMYD2 (Homo sapiens (Human), UniProt Q9NRG4)
Assay: SMYD2 biochemical assay (SMYD2 enzyme assay on peptide substrate, 3H-SAM Flashplate)
[1] = read-out: SMYD2 Biochem IC50, IC50 values are an average of n = 1 to n = 50

Sequence of SMYD2 (Q9NRG4 whole entry): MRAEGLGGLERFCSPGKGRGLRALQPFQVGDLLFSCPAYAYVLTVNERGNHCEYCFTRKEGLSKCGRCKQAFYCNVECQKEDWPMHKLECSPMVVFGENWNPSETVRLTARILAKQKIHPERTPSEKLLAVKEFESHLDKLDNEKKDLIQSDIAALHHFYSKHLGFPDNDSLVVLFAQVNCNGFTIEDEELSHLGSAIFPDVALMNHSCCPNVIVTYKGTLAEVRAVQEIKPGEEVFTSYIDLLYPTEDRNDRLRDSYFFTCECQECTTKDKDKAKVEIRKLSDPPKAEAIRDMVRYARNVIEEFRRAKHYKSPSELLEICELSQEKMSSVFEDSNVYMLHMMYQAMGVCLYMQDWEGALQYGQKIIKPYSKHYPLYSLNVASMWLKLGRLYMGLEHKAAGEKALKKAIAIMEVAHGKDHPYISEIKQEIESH
Excerpt: S-adenosylmethionine (SAM), S-adenosylhomocysteine (SAH), bicine, Tween20, dimethylsulfoxide (DMSO), bovine skin gelatin (BSG), and Tris(2-carboxyethyl)phosphine hydrochloride (TCEP) were purchased from Sigma-Aldrich at the highest level of purity possible. ^3H-SAM was purchase from American Radiolabeled Chemicals with a specific activity of 80 Ci/mmol. 384-well streptavidin Flashplates were purchased from PerkinElmer.
The sequence was [sequence](K-Biot)-amide.
Production of Recombinant SMYD2 Enzymes for Biochemical Enzyme Activity Assays
Full length SMYD2 (NP_064582.2) was cloned into a pFastbac-Htb-lic vector with an N-terminal His6 tag and FLAG tag, preceded by a TEV protease cleavage site. The protein was expressed in Sf9 insect cells. Cells were resuspended in lysis buffer (25 mM HEPES-NaOH, pH 7.5, 200 mM NaCl, 5% glycerol, and 5 mM (3-ME) and lysed by sonication. The protein was purified by Ni-NTA (Qiagen), followed by TEV cleavage to remove the His6 tag, subtractive Ni-NTA (Qiagen), and gel filtration chromatography using an S200 column (GE Healthcare). Purified protein was stored in 20 mM Tris-HCl, pH 8.0, 100 mM NaCl, and 1 mM TCEP.
General Procedure for SMYD2 Enzyme Assays on Peptide Substrates
The assays were all performed in a buffer consisting of 20 mM Bicine (pH=7.6), 1 mM TCEP, 0.005% Bovine Skin Gelatin, and 0.002% Tween20, prepared on the day of use. […] DMSO (1 ul) was added to Columns 11, 12, 23, 24, rows A-H for the maximum signal control and 1 ul of SAH, a known product and inhibitor of SMYD2, was added to columns 11, 12, 23, 24, rows I-P for the minimum signal control. A cocktail (40 ul) containing the SMYD2 enzyme was added by Multidrop Combi (Thermo-Fisher). The compounds were allowed to incubate with SMYD2 for 30 min at room temperature, then a cocktail (10 ul) containing ^3H-SAM and peptide was added to initiate the reaction (final volume=51 ul). […] The assays were stopped by the addition of non-radioactive SAM (10 ul) to a final concentration of 600 uM, which dilutes the ^3H-SAM to a level where its incorporation into the peptide substrate is no longer detectable. 50 ul of the reaction in the 384-well polypropylene plate was then transferred to a 384-well Flashplate and the biotinylated peptides were allowed to bind to the streptavidin surface for at least 1 hour before being washed three times with 0.1% Tween20 in a Biotek ELx405 plate washer. The plates were then read in a PerkinElmer TopCount plate reader to measure the quantity of ^3H-labeled peptide bound to the Flashplate surface, measured as disintegrations per minute (dpm) or alternatively, referred to as counts per minute (cpm).
Where dpm=disintegrations per minute, cmpd=signal in assay well, and min and max are the respective minimum and maximum signal controls.
Where top and bottom are the normally allowed to float, but may be fixed at 100 or 0 respectively in a 3-parameter fit. The Hill Coefficient normally allowed to float but may also be fixed at 1 in a 3-parameter fit. I is the compound concentration.

| IC50 [1] | IC50 | SMILES |
| --- | --- | --- |
| 88 nM | – | COc1ccc(C(C)N2CC(NC(=O)c3cn(C4CC4)nn3)C2)c(Cl)c1 (stereo not drawn) [compound 1002, N-(1-(1-(2-chloro-4-methoxyphenyl)ethyl)azetidin-3-yl)-1-cyclopropyl-1H-1,2,3-triazole-4-carboxamide] |
| 3.9 nM | – | O=C(NC1CN(Cc2cnn(Cc3ccc(Cl)cc3)c2)C1)c1cn(C2CC2)nn1 [compound 985, N-(1-((1-(4-Chlorobenzyl)-1H-pyrazol-4-yl)methyl)azetidin-3-yl)-1-cyclopropyl-1H-1,2,3-triazole-4-carboxamide] |
| 120 nM | – | Cc1coc(Cn2cc(CN3CC(NC(=O)c4cn(C5CC5)nn4)C3)cn2)n1 [compound 937, 1-cyclopropyl-N-(1-((1-((4-methyloxazol-2-yl)methyl)-1H-pyrazol-4-yl)methyl)azetidin-3-yl)-1H-1,2,3-triazole-4-carboxamide] |
| 541 nM | – | O=C(NC1CN(Cc2ccccc2)C1)c1cc(C2CC2)cnn1 [compound 651, N-(1-benzylazetidin-3-yl)-5-cyclopropylpyridazine-3-carboxamide] |
| > 50000 nM | – | CC(NC(=O)c1cn(C2CC2)nn1)C1CCCCN1 (stereo not drawn) [compound 1000, 1-cyclopropyl-N-(1-(piperidin-2-yl)ethyl)-1H-1,2,3-triazole-4-carboxamide] |
| 2400 nM | – | O=C(NC1CN(Cc2ccc(Cn3cccn3)cc2)C1)c1cc(C2CC2)cnn1 [compound 954, N-(1-(4-((1H-pyrazol-1-yl)methyl)benzyl)azetidin-3-yl)-5-cyclopropylpyridazine-3-carboxamide] |
| 5620 nM | – | COc1nn(C)cc1CN1CC(NC(=O)c2cn(C3CC3)nn2)C1 [compound 777, 1-cyclopropyl-N-{1-[(3-methoxy-1-methyl-1H-pyrazol-4-yl)methyl]azetidin-3-yl}-1H-1,2,3-triazole-4-carboxamide] |
| 3140 nM | – | CC(=O)Nc1cccc(C(C)N2CC(NC(=O)c3cn(C4CC4)nn3)C2)c1 (stereo not drawn) [compound 783, 1-cyclopropyl-N-{1-[1-(3-acetamidophenyl)ethyl]azetidin-3-yl}-1H-1,2,3-triazole-4-carboxamide] |
| > 50000 nM | – | CC(c1cccc(OCC(O)CO)c1Cl)N1CC(NC(=O)c2cn(C3CC3)nn2)C1 (stereo not drawn) [compound 973, N-(1-(1-(2-chloro-3-(2,3-dihydroxypropoxy)phenyl)ethyl)azetidin-3-yl)-1-cyclopropyl-1H-1,2,3-triazole-4-carboxamide] |
| 603 nM | – | COc1ccc(C(C)N2CC(NC(=O)c3cc(C4CC4)cnn3)C2)cc1 (stereo not drawn) [compound 856, 5-cyclopropyl-N-{1-[1-(4-methoxyphenyl)ethyl]azetidin-3-yl}pyridazine-3-carboxamide] |
| 160 nM | – | CC(c1ccccc1Cl)N1CC(NC(=O)c2cn(C3CC3)nn2)C1 (stereo not drawn) [compound 859, N-{1-[1-(2-chlorophenyl)ethyl]azetidin-3-yl}-1-cyclopropyl-1H-1,2,3-triazole-4-carboxamide] |
| > 50000 nM | – | CC(c1ccc(C(F)(F)F)cc1)N1CC(NC(=O)c2cn(C3CC3)nn2)C1 (stereo not drawn) [compound 680, 1-cyclopropyl-N-(1-{1-[4-(trifluoromethyl)phenyl]ethyl}azetidin-3-yl)-1H-1,2,3-triazole-4-carboxamide] |
| 110 nM | – | O=C(NC1CN(Cc2cnn(Cc3ccccc3Cl)c2)C1)c1cn(C2CC2)nn1 [compound 942, N-(1-((1-(2-chlorobenzyl)-1H-pyrazol-4-yl)methyl)azetidin-3-yl)-1-cyclopropyl-1H-1,2,3-triazole-4-carboxamide] |
| 18700 nM | – | CC(C)N1CCCC(NC(=O)c2cc(C3CC3)cnn2)C1 (stereo not drawn) [compound 815, 5-cyclopropyl-N-[1-(propan-2-yl)piperidin-3-yl]pyridazine-3-carboxamide] |
| – | 910 nM | C[C@@H](c1ccccc1)N1C[C@@H](NC(=O)c2cn(C3CC3)nn2)C1(C)C (racemic) [compound 1026, rac-1-cyclopropyl-N-((R)-2,2-dimethyl-1-((S)-1-phenylethyl)azetidin-3-yl)-1H-1,2,3-triazole-4-carboxamide] |
| 610 nM | – | Cn1cc(COc2ccc(CN3CC(NC(=O)c4cc(C5CC5)cnn4)C3)cc2)cn1 [compound 928, 5-cyclopropyl-N-(1-(4-((1-methyl-1H-pyrazol-4-yl)methoxy)benzyl)azetidin-3-yl)pyridazine-3-carboxamide] |
| 1430 nM | – | CC(C)C(c1ccccc1)N1CC(NC(=O)c2cn(C3CC3)nn2)C1 (stereo not drawn) [compound 787, 1-cyclopropyl-N-[1-(2-methyl-1-phenylpropyl)azetidin-3-yl]-1H-1,2,3-triazole-4-carboxamide] |
| 1200 nM | – | Cn1cc(COc2ccc(CN3CC(NC(=O)c4cn(C5CC5)nn4)C3)cc2)cn1 [compound 1025, 1-cyclopropyl-N-(1-(4-((1-methyl-1H-pyrazol-4-yl)methoxy)benzyl)azetidin-3-yl)-1H-1,2,3-triazole-4-carboxamide] |
| 11100 nM | – | O=C(NC1CN(Cc2cn(Cc3ccccc3)nn2)C1)c1cn(C2CC2)nn1 [compound 931, N-(1-((1-benzyl-1H-1,2,3-triazol-4-yl)methyl)azetidin-3-yl)-1-cyclopropyl-1H-1,2,3-triazole-4-carboxamide] |

| IC50 [1] | IC50 | SMILES |
| --- | --- | --- |
| 907 nM | – | CC(c1ccccc1F)N1CC(NC(=O)c2cn(C3CC3)nn2)C1 (stereo not drawn) [compound 678, 1-cyclopropyl-N-{1-[1-(2-fluorophenyl)ethyl]azetidin-3-yl}-1H-1,2,3-triazole-4-carboxamide] |
| 760 nM | – | O=C(NC1CN(Cc2cnn(Cc3nccs3)c2)C1)c1cn(C2CC2)nn1 [compound 991, 1-cyclopropyl-N-(1-((1-(thiazol-2-ylmethyl)-1H-pyrazol-4-yl)methyl)azetidin-3-yl)-1H-1,2,3-triazole-4-carboxamide] |
| 3.3 nM | – | O=C(NC1CN(Cc2cnn(Cc3ccc(Cl)cc3)c2)C1)c1cc(C2CC2)ccn1 [compound 930, N-(1-((1-(4-chlorobenzyl)-1H-pyrazol-4-yl)methyl)azetidin-3-yl)-4-cyclopropylpicolinamide] |
| 24 nM | – | O=C(NC1CN(Cc2cnn(Cc3cccc(Cl)c3)c2)C1)c1cn(C2CC2)nn1 [compound 987, N-(1-((1-(3-chlorobenzyl)-1H-pyrazol-4-yl)methyl)azetidin-3-yl)-1-cyclopropyl-1H-1,2,3-triazole-4-carboxamide] |
| 21100 nM | – | CN(C)CCNC(=O)c1cc(C2CC2)cnn1 [compound 869, 5-cyclopropyl-N-[2-(dimethylamino)ethyl]pyridazine-3-carboxamide] |
| 640 nM | – | CC(c1cccc(OCCO)c1)N1CC(NC(=O)c2cn(C3CC3)nn2)C1 (stereo not drawn) [compound 704, 1-cyclopropyl-N-(1-{1-[3-(2-hydroxyethoxy)phenyl]ethyl}azetidin-3-yl)-1H-1,2,3-triazole-4-carboxamide] |
| > 50000 nM | – | CN1CCCC(NC(=O)c2cc(C3CC3)cnn2)C1 (stereo not drawn) [compound 918, 5-cyclopropyl-N-(1-methylpiperidin-3-yl)pyridazine-3-carboxamide] |
| > 50000 nM | – | CN(C)CCCNC(=O)c1cc(C2CC2)cnn1 [compound 867, 5-cyclopropyl-N-[3-(dimethylamino)propyl]pyridazine-3-carboxamide] |
| 18200 nM | – | CC(NC(=O)c1cc(C2CC2)cnn1)C1CNC1 (stereo not drawn) [compound 839, N-[1-(azetidin-3-yl)ethyl]-5-cyclopropylpyridazine-3-carboxamide] |
| > 50000 nM | – | CC(C)N1CC(NC(=O)c2cn(CCN)nn2)C1 [compound 723, 1-(2-aminoethyl)-N-[1-(propan-2-yl)azetidin-3-yl]-1H-1,2,3-triazole-4-carboxamide] |
| 15200 nM | – | O=C(NC1CN(C(CO)c2ccc(F)cc2)C1)c1cn(C2CC2)nn1 (stereo not drawn) [compound 813, 1-cyclopropyl-N-{1-[1-(4-fluorophenyl)-2-hydroxyethyl]azetidin-3-yl}-1H-1,2,3-triazole-4-carboxamide] |
| 1030 nM | – | O=C(NC1CN(Cc2ccc(OCc3ccncc3)cc2)C1)c1cn(C2CC2)nn1 [compound 828, 1-cyclopropyl-N-(1-{[4-(pyridin-4-ylmethoxy)phenyl]methyl}azetidin-3-yl)-1H-1,2,3-triazole-4-carboxamide] |
| 925 nM | – | CC(c1ccc(OCc2ccccc2)c(Cl)c1)N1CC(NC(=O)c2cn(C3CC3)nn2)C1 (stereo not drawn) [compound 868, N-(1-{1-[4-(benzyloxy)-3-chlorophenyl]ethyl}azetidin-3-yl)-1-cyclopropyl-1H-1,2,3-triazole-4-carboxamide] |
| 1200 nM | – | O=C(NC1CN(Cc2cnn(Cc3cscn3)c2)C1)c1cn(C2CC2)nn1 [compound 945, 1-cyclopropyl-N-(1-((1-(thiazol-4-ylmethyl)-1H-pyrazol-4-yl)methyl)azetidin-3-yl)-1H-1,2,3-triazole-4-carboxamide] |
| 1300 nM | – | O=C(NC1CN(Cc2ccc(OCc3cccnc3)cc2)C1)c1cn(C2CC2)nn1 [compound 972, 1-cyclopropyl-N-(1-(4-(pyridin-3-ylmemoxy)benzyl)azetidin-3-yl)-1H-1,2,3-triazole-4-carboxamide] |
| 2660 nM | – | O=C(NC1CN(Cc2ccc(OCc3ccccn3)cc2)C1)c1cn(C2CC2)nn1 [compound 849, 1-cyclopropyl-N-(1-{[4-(pyridin-2-ylmethoxy)phenyl]methyl}azetidin-3-yl)-1H-1,2,3-triazole-4-carboxamide] |
| 2590 nM | – | COc1cc(C(C)N2CC(NC(=O)c3cn(C4CC4)nn3)C2)ccc1F (stereo not drawn) [compound 732, 1-cyclopropyl-N-{1-[1-(4-fluoro-3-methoxyphenyl)ethyl]azetidin-3-yl}-1H-1,2,3-triazole-4-carboxamide] |
| 3210 nM | – | CC(c1n[nH]c2ccccc12)N1CC(NC(=O)c2cn(C3CC3)nn2)C1 (stereo not drawn) [compound 761, 1-cyclopropyl-N-{1-[1-(1H-indazol-3-yl)ethyl]azetidin-3-yl}-1H-1,2,3-triazole-4-carboxamide] |

| SMILES | IC50 [1] | IC50 |
| --- | --- | --- |
| CN1[C@@H]2CC[C@H]1C[C@H](NC(=O)c1cc(C3CC3)cnn1)C2 [compound 1023, 5-cyclopropyl-N-((1R,3s,5S)-8-methyl-8-azabicyclo[3.2.1]octan-3-yl)pyridazine-3-carboxamide] | 6300 nM | – |
| CN1[C@@H]2CC[C@H]1C[C@@H](NC(=O)c1cc(C3CC3)cnn1)C2 [compound 1024, 5-cyclopropyl-N-((1R,3r,5S)-8-methyl-8-azabicyclo[3.2.1]octan-3-yl)pyridazine-3-carboxamide] | > 50000 nM | – |
